Laboratory results reported in patent US9393221B2, “Methods and compounds for reducing intracellular lipid storage” (THE GENERAL HOSPITAL CORPORATION, priority 2011, dated 2016).
Structures can show the parent of a compound that is named as a salt.
Note: test concentration or dose not given here.

What follows are compounds tested on ATGL-KO iPSCs (assay: High throughput iPSC chemical screening, Oil Red O (ORO) lipid accumulation). Details: normalized ORO level vs DMSO-treated cells; compound present during 7 days differentiation, 96-well; negative = decrease in lipid accumulation.
Format: cell-based, mouse
Compound `CCN1C[C@]2(COC)CC[C@H](O)[C@]34C1[C@@](O)([C@@H](OC)[C@H]23)[C@@]1(O)C[C@H](OC)[C@H]2C[C@@H]4[C@@H]1[C@H]2OC` [Delsoline] has a Z-score of −1.3301.
In the case of `CCN1C[C@]2(C)CC[C@H](OC)[C@@]34C1[C@]1(OCO[C@@]15C[C@H](OC)[C@H]1C[C@]3(O)[C@@H]5[C@H]1OC)[C@@H](OC(C)=O)[C@H]24` [Deltaline], the Z-score is reported as −1.2966.
With `CN(CCCCCCCCCCN(C)C(=O)Oc1cccc([N+](C)(C)C)c1)C(=O)Oc1cccc([N+](C)(C)C)c1` [Demecarium bromide] the Z-score was −0.6009.
`CN(C)[C@@H]1C(O)=C(C(N)=O)C(=O)[C@@]2(O)C(O)=C3C(=O)c4c(O)ccc(Cl)c4[C@@H](O)[C@H]3C[C@@H]12` [Demeclocycline hydrochloride] gave a Z-score of 1.787.
For `CC[N+](CC)(CC(=O)Nc1c(C)cccc1C)Cc1ccccc1` [Denatonium benzoate], the Z-score was −0.1971.
In the case of `C[C@]12CC[C@H]3[C@@H](CCC4=CC(=O)CC[C@@]43C)[C@@H]1CC[C@@H]2C(=O)CO` [Deoxycorticosterone], the Z-score is reported as 0.6523.
Work on `Cc1cc(N)c2ccccc2[n+]1CCCCCCCCCC[n+]1c(C)cc(N)c2ccccc21` [Dequalinium dichloride] yielded a Z-score of 42.6725.
With `CNCCCN1c2ccccc2CCc2ccccc21` [Desipramine hydrochloride] the Z-score was 0.2168.
For `CC(=O)OCC(=O)[C@@]1(O)[C@H](C)C[C@H]2[C@@H]3CCC4=CC(=O)C=C[C@]4(C)[C@@]3(F)[C@@H](O)C[C@@]21C` [Dexamethasone acetate], the Z-score was −1.3076.
Work on `CC1=NS(=O)(=O)c2cc(Cl)ccc2N1` [Diazoxide] yielded a Z-score of 0.5969.
`CCCCOc1cc(C(=O)NCCN(CC)CC)c2ccccc2n1` [Dibucaine] was tested, and the Z-score was 0.2274.
Compound `NS(=O)(=O)c1cc(Cl)c(Cl)c(S(N)(=O)=O)c1` [Dichlorphenamide] has a Z-score of 0.1624.
`O=C(O)Cc1ccccc1Nc1c(Cl)cccc1Cl` [Diclofenac sodium] was tested, and the Z-score was −1.137.
Compound `Cc1onc(-c2c(Cl)cccc2Cl)c1C(=O)N[C@@H]1C(=O)N2[C@@H]1SC(C)(C)[C@@H]2C(=O)O` [Dicloxacillin sodium salt] has a Z-score of −0.1893.
Work on `O=c1oc2ccccc2c(O)c1Cc1c(O)c2ccccc2oc1=O` [Dicumarol] yielded a Z-score of 1.966.
`CCN(CC)CCOC(=O)C1(C2CCCCC2)CCCCC1` [Dicyclomine hydrochloride, reference compound] gave a Z-score of −2.1533.
For `C/C=C(/C(=C/C)c1ccc(O)cc1)c1ccc(O)cc1` [Dienestrol], the Z-score was 0.1268.
In the case of `CCN(CC)C(=O)N1CCN(C)CC1` [Diethylcarbamazine citrate], the Z-score is reported as −1.1872.
Compound `CC/C(=C(/CC)c1ccc(O)cc1)c1ccc(O)cc1` [Diethylstilbestrol] has a Z-score of −0.977.
`CC(=O)OCC(=O)[C@@]1(OC(C)=O)[C@@H](C)C[C@H]2[C@@H]3C[C@H](F)C4=CC(=O)C=C[C@]4(C)[C@@]3(F)[C@@H](O)C[C@@]21C` [Diflorasone Diacetate] showed a Z-score of 0.6842.
`O=C(O)c1cc(-c2ccc(F)cc2F)ccc1O` [Diflunisal] showed a Z-score of −0.3972.
`C[C@]12CC[C@H](O)C[C@H]1CC[C@@H]1[C@@H]2CC[C@]2(C)[C@@H](C3=CC(=O)OC3)CC[C@]12O` [Digitoxigenin] gave a Z-score of −0.9264.
For `C[C@]12CC[C@H](O)C[C@H]1CC[C@@H]1[C@@H]2C[C@@H](O)[C@]2(C)[C@@H](C3=CC(=O)OC3)CC[C@]12O` [Digoxigenin], the Z-score was −1.0521.
For `C[C@H]1O[C@@H](O[C@H]2[C@@H](O)C[C@H](O[C@H]3[C@@H](O)C[C@H](O[C@H]4CC[C@@]5(C)[C@H](CC[C@@H]6[C@@H]5C[C@@H](O)[C@]5(C)[C@@H](C7=CC(=O)OC7)CC[C@]65O)C4)O[C@@H]3C)O[C@@H]2C)C[C@H](O)[C@@H]1O` [Digoxin], the Z-score was −0.815.
For `CC(C)[C@@]1(NC(=O)[C@@H]2C[C@@H]3c4cccc5[nH]cc(c45)C[C@H]3N(C)C2)O[C@@]2(O)[C@@H]3CCCN3C(=O)[C@H](Cc3ccccc3)N2C1=O` [Dihydroergocristine mesylate], the Z-score was 0.9157.
Work on `CN[C@@H]1[C@H](O[C@H]2[C@H](O[C@H]3[C@H](O)[C@@H](O)[C@H](NC(=N)N)[C@@H](O)[C@@H]3NC(=N)N)O[C@@H](C)[C@]2(O)CO)O[C@@H](CO)[C@H](O)[C@H]1O` [Dihydrostreptomycin sulfate] yielded a Z-score of 1.253.
With `COc1cc(C(=O)OCCCN2CCCN(CCCOC(=O)c3cc(OC)c(OC)c(OC)c3)CC2)cc(OC)c1OC` [Dilazep dihydrochloride] the Z-score was 0.1967.
With `CN(C(=O)C(Cl)Cl)c1ccc(OC(=O)c2ccco2)cc1` [Diloxanide furoate] the Z-score was −0.9785.
In the case of `COc1ccc([C@@H]2Sc3ccccc3N(CCN(C)C)C(=O)[C@@H]2OC(C)=O)cc1` [Diltiazem hydrochloride], the Z-score is reported as −0.974.
`CN(C)CCCSC(=N)N` [Dimaprit dihydrochloride] showed a Z-score of −1.2574.
In the case of `CN(C)CCOC(c1ccccc1)c1ccccc1.Cn1c(=O)c2[nH]c(Cl)nc2n(C)c1=O` [Dimenhydrinate], the Z-score is reported as −0.7776.
`CC1(C)OC(=O)NC1=O` [Dimethadione] showed a Z-score of −0.9493.
With `CCCCc1cc2ccccc2c(OCCN(C)C)n1` [Dimethisoquin hydrochloride] the Z-score was 0.4631.
Work on `CCCCC[C@H](O)/C=C/[C@@H]1[C@@H](C/C=C\CCCC(=O)O)[C@@H](O)C[C@H]1O` [Dinoprost trometamol] yielded a Z-score of 0.7612.
In the case of `COc1ccc(C(=O)c2ccccc2O)c(O)c1` [Dioxybenzone], the Z-score is reported as −1.6584.
`O=C(Nc1ccccc1)OCC(CN1CCCCC1)OC(=O)Nc1ccccc1` (centres unmarked) [Diperodon hydrochloride] was tested, and the Z-score was −0.6048.
Work on `C[N+]1(C)CCC(=C(c2ccccc2)c2ccccc2)CC1` [Diphemanil methylsulfate] yielded a Z-score of 0.6045.
`CN(C)CCOC(c1ccccc1)c1ccccc1` [Diphenhydramine hydrochloride] was tested, and the Z-score was 1.308.
Compound `OC(CCCN1CCCCC1)(c1ccccc1)c1ccccc1` [Diphenidol hydrochloride] has a Z-score of −0.7294.
`CN1CCC(OC(c2ccccc2)c2ccccc2)CC1` [Diphenylpyraline hydrochloride] showed a Z-score of 0.246.
With `CNCC(O)c1ccc(OC(=O)C(C)(C)C)c(OC(=O)C(C)(C)C)c1` (centres unmarked) [Dipivefrin hydrochloride] the Z-score was 1.363.
Work on `Cn1c(=O)c2c(ncn2CC(O)CO)n(C)c1=O` (centres unmarked) [Diprophylline] yielded a Z-score of −0.3767.
`OCCN(CCO)c1nc(N2CCCCC2)c2nc(N(CCO)CCO)nc(N3CCCCC3)c2n1` [Dipyridamole] was tested, and the Z-score was 0.4282.
For `Cc1c(N(C)CS(=O)(=O)[O-])c(=O)n(-c2ccccc2)n1C.[Na+]` [Dipyrone], the Z-score was 1.061.
Work on `CC(C)N(CCC(C(N)=O)(c1ccccc1)c1ccccn1)C(C)C` (centres unmarked) [Disopyramide] yielded a Z-score of −1.1535.
With `CCN(CC)C(=S)SSC(=S)N(CC)CC` [Disulfiram] the Z-score was 15.5036.
`C[C@]12N[C@H](Cc3ccccc31)c1ccccc12` [Dizocilpine maleate] was tested, and the Z-score was −1.1505.
With `CC(CCc1ccc(O)cc1)NCCc1ccc(O)c(O)c1` (centres unmarked) [Dobutamine hydrochloride] the Z-score was −0.4732.
For `CCN[C@H]1C[C@H](C)S(=O)(=O)c2sc(S(N)(=O)=O)cc21` [Dorzolamide hydrochloride], the Z-score was 1.587.
Work on `CN(C)CC/C=C1\c2ccccc2CSc2ccccc21` [Dosulepin hydrochloride] yielded a Z-score of 0.00689.
